This is an account of results in US7579488B2 (Eli Lilly and Company, priority 2003, dated 2009).

Where “and” joins values, the source holds several entries; their conditions need not be identical. Equal entries are not always repeated.

For series [1], the system named is rat osteocalcin promoter. The experiment in a line: OCN (osteocalcin) promoter assay. Format: cell-based. To be noted: RG-15 (ROS 17/2.8) cells. How it is done:
3. The OCN (Osteocalcin) Promoter Assay
The OCN Promoter Assay is an indicator and marker for osteoporosis. […] Preferred assay results are less than 50 nM.
(3) Materials and Method for The OCN Promoter Assay:
The activation of osteocalcin by VDR ligands was evaluated in a rat osteoblast-like cell line RG-15 (ROS 17/2.8) stably expressing rat osteocalcin promoter fused with luciferase reporter gene. […] Confluent RG-15 cells maintained in DMEM/F-12 medium (3:1) containing 5% FBS, 300 μg/ml G418 and at 37° C. under 5% CO2/95% air atmosphere were trypsinized (0.25% trypsin) and plated into white opaque 96-well cell culture plates (25000 cells/well). After 24 hr, cells (in DMEM/F-12 medium+2% FBS) were treated with various concentrations of compounds, dissolved in DMSO. The final DMSO concentration remained at 0.01% (v/v). After 48 hr treatment, the medium was removed, cells were lysed with 50 μl of lysis buffer (From Luciferase reporter assay system, Roche Diagnostics, Indianapolis, Ind.) and assayed for luciferase activity using the Luciferase Reporter Gene Assay kit from Boehringer Mannheim as per manufacturer's specifications.

In series [2] the test system is female DBF mice. The experiment in a line: Mouse hypercalcemia assay. To be noted: comparison compounds; oral gavage for 6 days.
From the text: The Mouse Hypercalcemia Assay
The Mouse Hypercalcemia Assay is a six day hypercalcemia test for toxicity and selectivity.
(4) Materials and Method for the Mouse Hypercalcemia Assay:
Weanling, virus-antibody-free, five to six weeks old female DBF mice (Harlan, Indianapolis, Ind.) are used for all the studies. Animals are allowed to acclimate to local vivarium conditions for 2 days. […] The animals then are divided into groups with 4-5 mice per group. Different doses of test compounds prepared in 10% Ethanol and 90% sesame oil are administered to mice orally via gavage for 6 days. 1α-25(OH)2D3 0.5 μg/kg/d was also given to one group of mice as the positive control. […] Raw data of group differences is assessed by analysis of variance (ANOVA) using Fisher's protected least significant difference (PLSD) where the significance level was P<0.05.
Series [3] deals with KERtr cells. The experiment in a line: Keratinocyte proliferation assay. The series is classed as cell-based. To be noted: Homo sapiens, 72 h, BrdU incorporation, several values separated by /, read-out: Kera. Prolif. IC50. Here is the method: 5. The Keratinocyte Proliferation Assay
This Assay is indicative for the treatment of psoriasis.
(5) The Keratinocyte Proliferation Assay:
KERtr cells (Human skin keratinocyte transformed with a retrovirus vector, obtained from ATCC) were plated in 96-well flat-bottomed plates (3000 cells/well) in 100 μl keratinocyte serum free medium supplemented with bovine pituitary extract in the absence of EGF (Life Technologies, Rockville, Md.) and incubated at 37° C. for two days. The cells were treated with various concentrations of VDR ligands (ten-fold serial dilution from 10,000 nM to 0.1 nM in triplicate), dissolved in 100 μl keratinocyte serum free medium supplemented with bovine pituitary extract in the absence of EGF and incubated at 37° C. for 72 hr. […] Potency values (IC50) values were determined as the concentration (nM) of compound that elicited a half-maximal response.
For orientation: Dividing cells build labelled thymidine or BrdU into new DNA.

In series [4] the target is T1, VDR (Homo sapiens, UniProt P11473).
T1 construct: the receptor expression vector pGal4-VDR-LBD (10 ng); expressed in transfected cells; host or cells: Caco-2 cells
T1 sequence (P11473 127-423 limits assumed): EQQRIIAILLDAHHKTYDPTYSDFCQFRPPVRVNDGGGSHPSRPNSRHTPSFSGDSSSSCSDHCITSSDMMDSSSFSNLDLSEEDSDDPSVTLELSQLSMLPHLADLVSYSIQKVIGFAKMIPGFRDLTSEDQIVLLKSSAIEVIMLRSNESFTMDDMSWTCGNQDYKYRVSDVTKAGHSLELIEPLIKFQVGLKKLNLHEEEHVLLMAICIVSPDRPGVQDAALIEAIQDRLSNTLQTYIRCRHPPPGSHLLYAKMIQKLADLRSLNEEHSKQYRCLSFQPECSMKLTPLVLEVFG
The experiment in a line: VDR CTF (Caco-2 cell co-transfection) assay. Format: cell-based. To be noted: Caco-2 cells, pGal4-VDR-LBD co-transfection, luciferase; several values separated by /. Here is the method: 2. The Caco-2 Cell Co-Transfection Assay:
The Caco-2 cell assay is an indicator for the undesirable condition of hypercalcemia. This co-transfection assay is a surrogate assay for in vivo calcemic activity of VDR ligands. […] Preferred assay results are greater than 1000 nM.
(2) Materials and Method for the Caco-2 Cell Assay:
Caco-2 cells, grown in phenol red free, DMEM (Invitrogen, Carlsbad, Calif.) containing 10% charcoal-stripped FCS (Hyclone, Logan, Utah), were transfected with Fugene 6 reagent (Roche Diagnostics, Indianapolis, Ind.). Cells (5000/well) were plated 18 h before transfection in a 96 well plate. The Cells were transfected with Gal4-responsive reporter pFRLuc (150 ng, Stratagene, La Jolla Calif.) and the receptor expression vector pGal4-VDR-LBD (10 ng), along with Fugene 6 reagent (0.2 μl/well). The DNA-Fugene complex was formed by incubating the mixture for 30 min at room temperature. The cells were transfected in triplicate for 5 h, and treated with various concentrations of VDR ligands (form 0.01 nM to 10,000 nM concentration range) 18 h post-transfection. The luciferase activity was quantified using Steady-Glo reagent kit (Promega, Madison, Wis.) as per manufacturer's specifications.

Series [5] has as its target T2, RXR-VDR heterodimer (Homo sapiens, UniProt P11473).
T2 construct: Add the Gal4-RXR-DEF and VP16-VDR-LBD; expressed in transfected cells; host or cells: SaOS-2 cells
T2 sequence (P11473 127-423 limits assumed): T1 sequence (P11473 127-423 limits assumed)
T2 sequence (P19793 201-462 partner limits assumed): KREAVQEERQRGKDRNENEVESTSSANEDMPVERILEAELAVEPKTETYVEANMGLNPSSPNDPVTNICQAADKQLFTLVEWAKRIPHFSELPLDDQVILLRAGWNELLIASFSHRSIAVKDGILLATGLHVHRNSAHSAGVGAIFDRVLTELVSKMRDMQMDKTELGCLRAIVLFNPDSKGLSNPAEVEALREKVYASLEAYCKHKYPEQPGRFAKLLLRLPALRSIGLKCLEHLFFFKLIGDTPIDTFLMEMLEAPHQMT
Put plainly: RXR-VDR heterodimerization assay (SaOS-2 cells). Format: cell-based. The following applies: Gal4-RXR-DEF/VP16-VDR-LBD luciferase reporter, several values in a cell separated by /. Here is the method: 1. The RXR-VDR Heterodimer Assay:
This assay provides the VDR activity of a test compound.
(1) Materials and Method for RXR-VDR Heterodimerization Assay:
Luciferase Assay Reagent: • Use Steady-Glo Luciferase Reagent from Promega (Cat #E2550) Consists of: a. E2533 Assay Substrate, lyopholized product and b. E2543 Assay Buffer. • Thaw at room temperature • Store Cell Harvesting Aspirate media from culture flask, rinse cells with HBSS and aspirate. Add trypsin and incubate. When cells appear detached, resuspend cells in growth media. Transfer into a new flask with fresh growth media for passaging the cells. Plate well plates and two extra plates A. Cell Count Mix the cell suspension using pipette Use Hematocytometer to count the cells Load cell suspension onto the hemocytometer chamber Count cells. […] In sterile flask add cell suspension to plating media. Mix. Add cells/well. Place the cells in the incubator. Cells should be about 75% confluent prior to transfection. DAY 2: Transfection Step 1: DNA and Media Add plain DMEM media to tubes for mixing the DNA Add the Reporter gene pFR-LUC Add the Gal4-RXR-DEF and VP16-VDR-LBD Step 2: FuGENE and Media Prepare plain DMEM media in a ubes for mixing FuGENE Add FuGENE 6 Transfection Reagent Incubate Step 3: FuGENE, DNA and Media Complex Add FuGENE Media complex from step 2 to DNA Media complex from step 1 Incubate Step 4: FuGENE, DNA and Media Complex to-well plate Add FuGENE-DNA-Media complex from step 3 to each plate Incubate. […] Day 4: Luciferase Assay Read the plates after drug treatment Remove part of media from all the wells and leave remainder Add Steady-Glo Luciferase Reagent mixture/wells Incubate Count each well using a Luminescence counter, Top Count NXT by Packard
Set a delay between plates to reduce the background.
Background: A reporter such as luciferase makes a cellular process visible.

[6] abbreviates: Rattus norvegicus, 48 h, 48 hr treatment, luciferase, several values separated by /.
Where [7] appears, read: 48 hr treatment, luciferase, several values separated by /.

Regarding `CCC(CC)(c1ccc(OCC(=O)C(C)(C)C)c(C)c1)c1ccc(OC[C@H](O)C(C)(C)C)c(C)c1` [EE, reference compound], in series [1] (Rattus norvegicus, comparison compounds), the EC50 (in general, the concentration that produces a half-maximal response) was found to be 0.341 µM. In addition, the “Mouse Hypercal” value in series [2] was 1000 µg/kg/day.

As to `CCC(CC)(c1ccc(OCC(=O)C(C)(C)C)c(C)c1)c1cc2ccc(C(=O)NCC(=O)O)cc2o1` [Ex 20, [(2-{1-[4-(3,3-Dimethyl-2-oxo-butoxy)-3-methyl-phenyl]-1-ethyl-propyl}-benzofuran-6-carbonyl)-amino]-acetic acid], in series [3], the IC50 (commonly the concentration at which inhibition is half-maximal) worked out at 1 µM. The EC50 was 773 nM in series [4]; 0.264 µM and 0.068 µM in series [5].

On to `CCC(CC)(c1ccc(OCC(O)C(C)(C)C)c(C)c1)c1ccc2oc(C(=O)NCC(=O)O)cc2c1` (stereo not drawn) [Ex 33, [(5-{1-ethyl-1-[4-(2-hydroxy-3,3-dimethyl-butoxy)-3-methyl-phenyl]-propyl}-benzofuran-2-carbonyl)-amino]-acetic acid], for which the EC50 in series [1] (setting [6]) was 0.0004 µM; in series [4] it was 178 nM; in series [5], 0.009 µM.

Turning to `CCC(CC)(c1ccc(OCC(O)C(C)(C)C)c(C)c1)c1ccc2oc(C(=O)O)c(C)c2c1` (stereo not drawn) [Ex 35, 5-{1-Ethyl-1-[4-(2-hydroxy-3,3-dimethyl-butoxy)-3-methyl-phenyl]-propyl}-3-methyl-benzofuran-2-carboxylic acid], the EC50 worked out at 0.021 µM in series [1] (setting [7]), 0.013 µM in series [1] (setting [6]) and 753 nM in series [4]. Further, in series [3], the IC50 came out at 0.7 µM.

As to `CCC(CC)(c1ccc(OCC(O)C(C)(C)C)c(C)c1)c1ccc2oc(C(=O)N(C)C)c(C)c2c1` (stereo not drawn) [Ex 37, 5-{1-ethyl-1-[4-(2-hydroxy-3,3-dimethyl-butoxy)-3-methyl-phenyl]-propyl}-3-methyl-benzofuran-2-carboxylic acid dimethylamide], the IC50 in series [3] is > 1 µM. In addition, the EC50 was 865 nM in series [4]; 0.777 µM and 0.133 µM in series [5].

For the compound `CCC(CC)(c1ccc(OCC(O)C(C)(C)C)c(C)c1)c1ccc2oc(C(=O)NCC(=O)O)c(C)c2c1` (stereo not drawn) [Ex 39, [(5-{1-ethyl-1-[4-(2-hydroxy-3,3-dimethyl-butoxy)-3-methyl-phenyl]-propyl}-3-methyl-benzofuran-2-carbonyl)-amino]-acetic acid], the EC50 in series [1] (setting [6]) came to 0.0004 µM; in series [4] it was 419 nM; in series [5], 0.138 µM. For the same compound, the IC50 in series [3] was 0.019 µM.

As for `CCC(CC)(c1ccc(OCC(O)C(C)(C)C)c(C)c1)c1cc2cc(C(=O)O)ccc2o1` (stereo not drawn) [Ex. 4, 2-{1-Ethyl-1-[4-(2-hydroxy-3,3-dimethyl-butoxy)-3-methyl-phenyl]-propyl}-benzofuran-5-carboxylic acid], the 50% effective concentration (EC50) in series [4] is 312 nM and 368 nM.

As to `CCC(CC)(c1ccc(OCC(=O)C(C)(C)C)c(C)c1)c1cc2cc(C(=O)N(C)C)ccc2o1` [Ex. 5, 2-{1-[4-(3,3-Dimethyl-2-oxo-butoxy)-3-methyl-phenyl]-1-ethyl-propyl}-benzofuran-5-carboxylic acid dimethylamide], the values for the EC50 in series [1] (setting [7]), in series [1] (setting [6]) and in series [4] were 0.079 µM, 0.106 µM and 1200 nM, respectively.

In the case of `CCC(CC)(c1ccc(OCC(O)C(C)(C)C)c(C)c1)c1cc2cc(C(=O)NCC(=O)O)ccc2o1` (stereo not drawn) [Ex. 8, [(2-{1-Ethyl-1-[4-(2-hydroxy-3,3-dimethyl-butoxy)-3-methyl-phenyl]-propyl}-benzofuran-5-carbonyl)-amino]-acetic acid], the EC50 in series [1] (setting [6]) was 0.0006 µM; in series [4], 120 nM; in series [5] it was 0.006 µM and 0.002 µM. Moreover, the IC50 in series [3] is 0.0003 µM.

Turning to `CCC(CC)(c1ccc(OCC(O)C(C)(C)C)c(C)c1)c1cc2cc(C(=O)Nc3nn[nH]n3)ccc2o1` (stereo not drawn) [Ex. 13, 2-{1-Ethyl-1-[4-(2-hydroxy-3,3-dimethyl-butoxy)-3-methyl-phenyl]-propyl}-benzofuran-5-carboxylic acid (2H-tetrazol-5-yl)-amide], the EC50 in series [1] (setting [6]) was found to be 0.003 µM; in series [4], 602 nM. For the same compound, the IC50 in series [3] is > 1 µM.
